Results taken from patent US20050033056A1, “Hydroxylated indole derivatives and uses thereof” (priority 2001, published 2005).

Biological target: CYP2C19 (Homo sapiens, UniProt P33261)
Test: CYP inhibition in HLM: S-mephenytoin 4'-hydroxylation
Format: in vitro ADME
Set-up: tissue Gentest Corp. (Woburn, Mass.); host or cells: pooled human liver microsomes
Conditions: in the presence of Compound 1, concentration-dependent
Procedure: The incubations were carried out in test tubes (12.0×75 mm). The incubation mixtures (250 μL) contained 0.5 mg of HLM protein, 50 (CYP1A2 and CYP2E1) or 25 (CYP2C9, CYP2C19, CYP2D6 and CYP3A4) pmol of recombinant human CYPs, Compound 1 (10 or 50 μM), probe substrate (R—, S-warfarin, chlorzoxazone, S-mephenyloin, or bufuralol) at different concentrations, and 0.5 mg of NADPH in 50 mM Tris buffer containing 15 mM MgCl2 (pH 7.4). Compound 1 was added to the reaction mixture 5 minutes prior to the addition of the probe substrate. […]
The quantification was based on the calibration curves, and the quality control (QC) samples were applied to ensure the quality of the experiments. […]
4. […] MRM was applied for the quantification. […]
Data were acquired and analyzed by ChemStation (Version 6.03, Hewlett Packard, Waldbronn, Germany) for 6-, 7-, and 10-hydroxywarfarin and 6-hydroxychlorzoxazone, and MacQuan (Version 1.6, PE Biosystem, Foster City, Calif.) for 1′-hydroxybufuralol and 4′-hydroxymephenytoin. Quantification was based on peak area ratios of metabolites over the respective IS against the respective concentration of the metabolites. […] The metabolic rates were determined using Excel (Microsoft Office 97, Microsoft Corporation, Redmond, Wash.) or SigmaPlot (Version 6.00, SPSS Inc. Chicago, Ill.). […]

CYP2C19, sequence (P33261 whole entry): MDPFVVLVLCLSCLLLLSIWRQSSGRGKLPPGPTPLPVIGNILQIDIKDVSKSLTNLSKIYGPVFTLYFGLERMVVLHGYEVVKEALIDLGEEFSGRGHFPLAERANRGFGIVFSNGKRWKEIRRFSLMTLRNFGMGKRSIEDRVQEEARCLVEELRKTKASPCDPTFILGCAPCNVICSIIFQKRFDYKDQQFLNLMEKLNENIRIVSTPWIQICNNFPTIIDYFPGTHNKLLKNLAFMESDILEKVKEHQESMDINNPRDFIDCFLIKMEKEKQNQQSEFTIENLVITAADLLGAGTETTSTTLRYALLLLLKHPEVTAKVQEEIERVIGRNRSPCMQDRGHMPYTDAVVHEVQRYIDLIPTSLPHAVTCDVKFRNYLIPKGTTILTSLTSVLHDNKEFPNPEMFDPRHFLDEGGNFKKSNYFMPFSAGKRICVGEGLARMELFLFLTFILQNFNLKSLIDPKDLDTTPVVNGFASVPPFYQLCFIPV

CNC(=O)Cc1ccc2ccn(C3CCN(CCc4ccccc4F)CC3)c2c1 [Compound 1, N-methyl-[1-[1-(2-fluorophenethyl)piperidine-4-yl]-1H-indol-6-yl] acetamide]
effect on CYP2C19-mediated S-mephenyloin 4'-hydroxylation activity (in words): significantly reduced
